Assay results as given in PubChem BioAssay (NCI).
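Cultured in 96-well plates, cells were exposed to test compound for 48 hours across five concentrations. The concentration for 50% growth inhibition is given as GI50. TGI is the concentration that stops growth completely.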

Key:
Assay in all cases: inhibition of tumour cell growth, NCI panel, 48 h
EKVX NSCLC = system: EKVX NSCLC
DU-145 prostate = system: DU-145 prostate
MCF7 breast = system: MCF7 breast
SK-MEL-2 melanoma = system: SK-MEL-2 melanoma
SF-268 CNS = system: SF-268 CNS
HCT-116 colon = system: HCT-116 colon
A549 NSCLC = system: A549 NSCLC
U251 CNS = system: U251 CNS
NCI-H522 lung = system: NCI-H522 lung
ACHN renal = system: ACHN renal

| SMILES | TGI (EKVX NSCLC) [µM] | TGI (DU-145 prostate) [µM] | TGI (MCF7 breast) [µM] | TGI (SK-MEL-2 melanoma) [µM] | TGI (SF-268 CNS) [µM] | TGI (HCT-116 colon) [µM] | TGI (A549 NSCLC) [µM] | TGI (U251 CNS) [µM] | TGI (NCI-H522 lung) [µM] | TGI (ACHN renal) [µM] | GI50 (MCF7 breast) [µM] |
| --- | --- | --- | --- | --- | --- | --- | --- | --- | --- | --- | --- |
| CC1(C)CC(=O)C2(CC(CSc3ccccc3)C(CS(=O)(=O)c3ccccc3)C2)C(=O)C1 (stereo unspecified) | > 100 | > 100 | > 100 | > 100 | > 100 | > 100 | > 100 | > 100 | > 100 | > 100 | – |
| CC(Oc1ccccc1Cl)C(=O)NN1C(=O)CSC1c1ccccc1 (stereo unspecified) | > 100 | > 100 | > 100 | > 100 | > 100 | > 100 | > 100 | > 100 | > 100 | > 100 | – |
| O=[N+]([O-])c1cccc(N=Nc2c(O)c(S(=O)(=O)O)cc3cc(S(=O)(=O)O)ccc23)c1 | > 100 | > 100 | > 100 | > 100 | > 100 | > 100 | > 100 | > 100 | > 100 | > 100 | – |
| Cc1cc2c([nH]c3ccccc32)c(O)c1-c1c(C)cc2c([nH]c3ccccc32)c1O | 27.7 | 25.7 | 25 | 30.6 | 27.4 | 27.2 | 26.8 | 23.7 | 31.5 | 27.3 | 11.2 |
| Nc1nc(Cl)cc(NC23CC4CC(CC(C4)C2)C3)n1 | > 100 | > 100 | > 100 | 71.4 | > 100 | > 100 | > 100 | > 100 | > 100 | > 100 | – |
| CN(C)CCCNc1ccc2nnn3c4ccc(O)cc4c(=O)c1c23 | 25.3 | 18.6 | 24.8 | 26.3 | 16.3 | 16 | 16.9 | 18.7 | 19.8 | 13.5 | – |
| O=C1NC(=O)C(C(CC(=O)c2ccc(Cl)cc2)c2ccc(Cl)cc2)C(=O)N1 (stereo unspecified) | > 100 | > 100 | 44.2 | > 100 | > 100 | > 100 | > 100 | > 100 | > 100 | > 100 | – |
| Cc1ccccc1N=C(N)Nc1ccccc1C | > 100 | > 100 | > 100 | > 100 | > 100 | > 100 | > 100 | > 100 | > 100 | > 100 | – |
| Cc1ccc(S(=O)(=O)Nc2nnc(S(N)(=O)=O)s2)cc1 | > 100 | > 100 | > 100 | > 100 | > 100 | > 100 | > 100 | > 100 | > 100 | > 100 | – |
| Nc1ccc(S(=O)(=O)Nc2nc3ccccc3nc2N2CCCCCC2)cc1 | > 100 | > 100 | > 100 | 40.8 | > 100 | 33.2 | > 100 | 46.4 | > 100 | > 100 | – |
| O=C(c1cccs1)N1CCN(C(=O)c2cccs2)C1=S | 27.8 | 7.7 | 14.8 | 28.3 | 20 | 21.7 | 19.8 | 18.2 | 35.8 | 20.5 | – |
| O=c1c(-c2ccccc2)c(SCCO)n(-c2ccccc2)c(=S)n1-c1ccccc1 | > 100 | > 100 | > 100 | > 100 | > 100 | > 100 | > 100 | > 100 | > 100 | > 100 | – |
| CC(=O)Nc1ccc(OC/C(N)=N/NC(=O)c2ccncc2)cc1 | > 100 | > 100 | > 100 | > 100 | > 100 | > 100 | > 100 | > 100 | > 100 | > 100 | – |
| CN(C)CCn1c(CO)nc2c1c(=O)n(C)c(=O)n2C | > 100 | > 100 | > 100 | > 100 | > 100 | > 100 | > 100 | > 100 | > 100 | > 100 | – |
| c1ccc(/C(=N/Nc2ccncn2)c2ccccn2)cc1 | 50.3 | > 100 | > 100 | > 100 | 50.9 | > 100 | > 100 | > 100 | 4.14 | 88.1 | – |
| CCCCCCCCCCCCCCCCCCNc1nc(=O)n(C2CC(O)C(COP(=O)(O)O)O2)cc1F (stereo unspecified) | > 100 | > 100 | > 100 | > 100 | > 100 | > 100 | > 100 | > 100 | > 100 | > 100 | – |
| C=C(C)[C@H]1C2=CC(C)=C(O2)[C@@H](O[C@@H]2c3oc(cc3C)[C@H](C(=C)C)[C@H]3C=C(CC[C@H]2C(=C)C)C(=O)O3)[C@H](C(=C)C)CCC2=C[C@H]1OC2=O | > 100 | > 100 | > 100 | > 100 | > 100 | > 100 | > 100 | > 100 | > 100 | > 100 | – |
